Results as given in ChEMBL document CHEMBL1147387, “A cytotoxic beta-carboline from the bryozoan Catenicella cribraria” (1993).

Test: Cytotoxicity against human NCI60 cells
Assay type: functional

## C=Cc1nccc2c1[nH]c1c(O)cccc12
  GI50: 1800 nM
  TGI: 5.8 µM
read-out: LC50 (the source's name)
  CC50: 19 µM
